The assay concerns the target T1, recombinant human mGluR2 (Homo sapiens, UniProt Q14416).
T1 construct: expressed in transfected cells
The experiment in a line: FLIPR Ca2+ mobilization assay, potentiation of mGluR2. The format is cell-based. Particulars: CHO dhfr- cells expressing human mGluR2 and Gα16, EC20 glutamate (900 nM). Here is the method: Potencies are determined as follows. The compounds of the present invention may be tested in a fluorescence laser imaging plate reader (FLIPR) based assay. This assay is a common functional assay to monitor Ca^2+ mobilization in whole cells expressing recombinant receptor coupled with a promiscuous G-protein. CHO dhfr− cells stably expressing recombinant human mGluR2 and Gα16 loaded with Fluo-4 AM (Invitrogen, Carlsbad Calif.) are treated with varying concentrations of compounds and the Ca^2+ response is monitored on a FLIPR384 (Molecular Devices, Sunnydale Calif.) for agonist activity. The potentiation response is monitored after a subsequent addition of an EC20 concentration of glutamate (900 nM). The maximum calcium response at each concentration of compound for agonism or potentiation are plotted as dose responses curves fitted with a four parameters logistic equation giving EC50 and Hill coefficient using the iterative non linear curve fitting software program.

pEC50: −log10 of the molar value.

T1 sequence (Q14416 19-872): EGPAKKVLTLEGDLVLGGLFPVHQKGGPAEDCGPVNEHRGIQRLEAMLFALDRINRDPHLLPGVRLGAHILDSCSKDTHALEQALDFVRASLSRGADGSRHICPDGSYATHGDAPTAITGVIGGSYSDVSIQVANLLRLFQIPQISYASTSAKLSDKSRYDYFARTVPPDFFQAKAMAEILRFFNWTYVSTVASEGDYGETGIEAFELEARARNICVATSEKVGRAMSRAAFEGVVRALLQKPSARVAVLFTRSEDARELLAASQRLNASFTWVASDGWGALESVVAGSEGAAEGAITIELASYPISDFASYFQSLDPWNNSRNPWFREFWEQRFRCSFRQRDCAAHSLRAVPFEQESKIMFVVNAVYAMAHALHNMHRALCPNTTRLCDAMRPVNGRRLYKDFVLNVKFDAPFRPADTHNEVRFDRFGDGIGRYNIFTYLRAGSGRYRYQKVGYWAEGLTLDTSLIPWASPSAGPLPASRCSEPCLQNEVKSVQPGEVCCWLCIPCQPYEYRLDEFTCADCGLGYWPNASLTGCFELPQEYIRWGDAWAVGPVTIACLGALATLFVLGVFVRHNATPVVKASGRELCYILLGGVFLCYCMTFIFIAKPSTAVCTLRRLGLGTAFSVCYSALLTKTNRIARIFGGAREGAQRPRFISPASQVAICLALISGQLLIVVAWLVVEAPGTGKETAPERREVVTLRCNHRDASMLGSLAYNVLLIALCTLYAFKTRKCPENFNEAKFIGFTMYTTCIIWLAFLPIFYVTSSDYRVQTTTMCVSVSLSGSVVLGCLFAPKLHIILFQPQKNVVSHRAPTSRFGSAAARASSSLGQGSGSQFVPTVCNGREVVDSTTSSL

Regarding `CC(C)(O)c1ccc(-c2ccc3c(nnn3CC3CC3)c2C(F)(F)F)cc1` [Example 7, 2-{4-[1-(cyclopropylmethyl)-4-(trifluoromethyl)-1H-benzotriazol-5-yl]phenyl}propan-2-ol], the pEC50 was 8.68.

Consider `COC(=O)c1ccc(-c2ccc3c(nnn3CC3CC3)c2C(F)(F)F)c(F)c1` [Example 3, methyl 4-[1-(cyclopropylmethyl)-4-(trifluoromethyl)-1H-benzotriazol-5-yl]-3-fluorobenzoate], for which the pEC50 was 7.82.

With `COC(C)c1ccc(-c2ccc3c(nnn3CC3CC3)c2C(F)(F)F)cc1` (centres unmarked) [Example 6, 1-(cyclopropylmethyl)-5-[4-(1-methoxyethyl)phenyl]-4-(trifluoromethyl)-1H-benzotriazole], the pEC50 was 7.51.

With `OCc1ccc(-c2ccc3c(nnn3CC3CC3)c2C(F)(F)F)c(F)n1` [Example 1, {5-[1-(Cyclopropylmethyl)-4-(trifluoromethyl)-1H-benzotriazol-5-yl]-6-fluoropyridin-2-yl}methanol], the pEC50 is 7.57.

Regarding `OCC(O)c1ccc(-c2ccc3c(nnn3CC3CC3)c2C(F)(F)F)c(F)n1` (centres unmarked) [Example 4, 1-{5-[1-(cyclopropylmethyl)-4-(trifluoromethyl)-1H-benzotriazol-5-yl]-6-fluoropyridin-2-yl}ethane-1,2-diol], the pEC50 was 6.89.

For `CC(O)c1ccc(-c2ccc3c(nnn3CC3CC3)c2C(F)(F)F)cc1` (centres unmarked) [Example 5, 1-{4-[1-(cyclopropylmethyl)-4-(trifluoromethyl)-1H-benzotriazol-5-yl]phenyl}ethanol], the pEC50 was 8.08.

Take `OC1CCOc2cc(-c3ccc4c(nnn4CC4CC4)c3C(F)(F)F)ccc21` (centres unmarked) [Example 8, 7-[1-(cyclopropylmethyl)-4-(trifluoromethyl)-1H-benzotriazol-5-yl]-3,4-dihydro-2H-chromen-4-ol]: the pEC50 was 8.41.

`OCc1ccc(-c2ccc3c(nnn3CC3CC3)c2C(F)(F)F)cc1` [Example 2, {4-[1-(cyclopropylmethyl)-4-(trifluoromethyl)-1H-benzotriazol-5-yl]phenyl}methanol]: the pEC50 was 7.96.

Values taken from patent US20140088151A1, “ALHYDROXYMETHYL BIARYL BENZOTRIAZOLE DERIVATIVES” (priority 2011, published 2014).
